Each structure is given as a SMILES string.

A short description of this data set: physchem. As to conditions: pH 7.6, aqueous with cosolvent or surfactant or cyclodextrin, kinetic from dmso stock.

Turning to `COc1ccccc1N1CCN(C(=O)c2ccc3c(c2)NC(=O)C(CSCc2ccccc2C)N3)CC1` (stereo not shown) [Compound 4], the solubility (commonly the concentration that dissolves in the medium under given conditions) was no more than 50 µM.

The values are drawn from paper PMC4090677 (Frontiers in Immunology, 2014).
